This data set is described as follows: method code SF, from DOI: 10.2478/s11696-010-0084-9.

The structures appear in SMILES notation.

For the compound `O=C(NCc1cccnc1)c1cc(Cl)cc(Cl)c1O`, the logP came out at 2.3.
As for `Cc1ccc(C(=O)NCc2cccnc2)c(O)c1`, the logP is 1.67.
For the compound `COc1cccc(C(=O)NCc2ccccn2)c1O`, the log partition coefficient (logP) was 1.48.
As for `O=C(NCc1ccccc1)c1ccccc1O`, the logP stood at 2.52.
In the case of `O=C(NCc1ccccc1)c1cc(Br)cc(Br)c1O`, the logP was 4.18.
In turn, `O=C(NCc1ccccc1)c1cc(Br)ccc1O` had a logP of 3.53.
Under `COc1ccc(C(=O)NCc2cccnc2)c(O)c1` stands 1.06.
Consider `O=C(NCc1ccccn1)c1cc(Br)ccc1O`, for which the logP turned out to be 2.43.
For `Cc1cccc(C(=O)NCc2ccccn2)c1O` the value was 2.09; for `O=C(NCc1ccccn1)c1ccc(Cl)cc1O`, 2.16; for `O=C(NCc1ccccc1)c1cc(Cl)ccc1O`, 3.08.
The compound `Cc1ccc(C(=O)NCc2ccccn2)c(O)c1` showed a logP of 2.09.
Regarding `COc1cccc(C(=O)NCc2ccccc2)c1O`, the logP worked out at 2.39.
For `O=C(NCc1ccccc1)c1ccc(Cl)cc1O` the value was 3.08.
Under `O=C(NCc1ccccn1)c1cc(F)ccc1O` stands 1.76.
`O=C(NCc1cccnc1)c1ccc(Cl)cc1O`: the logP turned out to be 1.74.
Regarding `O=C(NCc1cccnc1)c1cc(Br)ccc1O`, the logP was found to be 2.01.
Under `O=C(NCc1ccccn1)c1cc(Br)cc(Br)c1O` stands 3.26; under `O=C(NCc1cccnc1)c1ccccc1O`, 1.18.
Under `O=C(NCc1ccccc1)c1cc(Cl)cc(Cl)c1O` stands 3.64; under `COc1cccc(C(=O)NCc2cccnc2)c1O`, 1.06; under `O=C(NCc1cccnc1)c1cc(F)ccc1O`, 1.34.
`O=C(NCc1cccnc1)c1cc(Br)cc(Br)c1O` gave a logP of 2.84.
Turning to `O=C(NCc1ccccn1)c1cc(Cl)ccc1O`, the log partition coefficient (logP) turned out to be 2.16.
Consider `Cc1cccc(C(=O)NCc2cccnc2)c1O`, for which the logP came out at 1.67.
The compound `O=C(NCc1cccnc1)c1cc(Cl)ccc1O` returned a logP of 1.74.

(Values after the SangsterLogP compilation.)
